Structures can show the parent of a compound that is named as a salt. Where two headings read alike, the source gives them in different places.
Tests used:
[1] = system: MCF-7 breast carcinoma; experiment: MTT cytotoxicity assay, MCF-7; conditions: for IC50: Homo sapiens, MCF7, […], read-out: Cytotoxicity ED50, MCF-7
[2] = system: MLM melanoma; experiment: MTT cytotoxicity assay, MLM; conditions: for IC50: read-out: Cytotoxicity ED50, MLM
[3] = system: HT-29 colon adenocarcinoma; experiment: MTT cytotoxicity assay, HT-29; conditions: for IC50: Homo sapiens, HT-29, […], read-out: Cytotoxicity ED50, HT-29
[4] = system: SKMEL-5 melanoma; experiment: MTT cytotoxicity assay, SKMEL-5; conditions: for IC50: Homo sapiens, SK-MEL-5, […], read-out: Cytotoxicity ED50, SKMEL-5
[5] = system: five cancer cell cultures; experiment: MTT cytotoxicity assay, five cancer cell cultures taken together; conditions: for cytotoxicity (in words): five cancer cell lines; for less cytotoxic than 8a / cytotoxicity reduced: relative to 8a
[6] = system: A-549 lung carcinoma; experiment: MTT cytotoxicity assay, A-549; conditions: for IC50: Homo sapiens, A549, […], read-out: Cytotoxicity ED50, A-549
[7] = system: tubulin; experiment: Inhibition of tubulin polymerization (turbidimetry); format: biochemical, bovine
[8] = system: DMS 273 small cell lung cancer; experiment: Cytotoxicity, DMS 273; conditions: read-out: cytotoxicity GI50, DMS 273; 50% growth inhibition; average of two determinations; 8640 min
[9] = second series (Tables V-VII, IX), read-out: Inhibition of Tubulin Polymerization IC50 (±S.D.)
[10] = read-out: cytotoxicity ED50, in at least three cell lines
[11] = read-out: cytotoxicity ED50, in at least four cell lines
[12] = first series (Table VIII and text), 37° C., 20 min, read-out: Tubulin polymerization IC50 (±S.D.)
[13] = read-out: cytotoxicity ED50, A-549, MCF-7, HT-29, and SKMEL-5 cell cultures

SMILES | IC50 [1] | IC50 [2] | IC50 [3] | IC50 [4] | IC50 [6] | IC50 [7, 9] | cytotoxicity (in words) [5] | also measured
COc1ccc(/C=C\c2cc(OC)cc(OC)c2)cc1 [15i, (Z)-1-(3,5-Dimethoxyphenyl)-2-(4-methoxyphenyl)ethene] | 160 nM | 0.098 µM | 340 nM | 420 nM | 130 nM | 3.8 µM |  | IC50 ([5]; read-out: cytotoxicity ED50): ~100 nM
COc1cc(/C=C/c2ccc(SC)cc2)cc(OC)c1OC [16c] | 59 nM | 7.3 µM | 83 nM | 280 nM | 470 nM |  |  | IC50 [5, 10]: ~100 nM
COc1cc(/C=C/c2ccc(C(C)C)cc2)cc(OC)c1OC [16f, (E)-[4-(2-Propyl)phenyl]-2-(3,4,5-trimethoxyphenyl)ethene] | 18400 nM | > 25 µM | 6800 nM | 11100 nM | 9800 nM |  |  | IC50 ([5]; read-out: cytotoxicity ED50): ~100 nM
CCOc1ccc(CCc2cc(OC)c(OC)c(OC)c2)cc1 [17a, 1-(4-Ethoxyphenyl)-2-(3,4,5-trimethoxyphenyl)ethane] | 190 nM | 2.7 µM | 180 nM | 170 nM | 190 nM | 10 µM |  | IC50 [5, 11]: < 1000 nM
CCCOc1ccc(CCc2cc(OC)c(OC)c(OC)c2)cc1 [17b, 1-(4-n-Propoxyphenyl)-2-(3,4,5-trimethoxyphenyl)ethane] | 3900 nM | 15 µM | 6400 nM | 6700 nM | 7200 nM | > 40 µM | decreased cytotoxicity | 
COc1cc(CCc2ccc(SC)cc2)cc(OC)c1OC [17c, 1-(4-Methylthiophenyl)-2-(3,4,5-trimethoxyphenyl)ethane] | 200 nM | 1.3 µM | 400 nM | 240 nM | 150 nM | > 40 µM | decreased cytotoxicity | 
COc1cc(CCc2ccc(OCCN(C)C)cc2)cc(OC)c1OC [17f] | 10300 nM | > 25 µM | 9800 nM | 11400 nM | > 25000 nM | > 40 µM | decreased cytotoxicity | 
CCN(CC)CCOc1ccc(CCc2cc(OC)c(OC)c(OC)c2)cc1 [17g] | 4300 nM | > 25 µM | 5200 nM | 8500 nM | 6800 nM | > 40 µM | decreased cytotoxicity | 
CCN(CC)CCOC(=O)/C(=C/c1ccc(OC)cc1)c1cc(OC)c(OC)c(OC)c1 [24e, (E)-(2-N,N-Diethylamino)ethyl-3-(4-methoxyphenyl)-2-(3,4,5-trimethoxyphenyl)-prop-2-enoate] | 2100 nM | > 25 µM | 2800 nM | 2700 nM | 1800 nM | > 40 µM | did not show considerable cytotoxicity | 
CCN(CC)CCOC(=O)/C(=C/c1cccc(OC)c1)c1cc(OC)c(OC)c(OC)c1 [24f, (E)-(2-N,N-Diethylamino)ethyl-3-(3-methoxyphenyl)-2-(3,4,5-trimethoxyphenyl)-prop-2-enoate] | 10400 nM | > 25 µM | > 25000 nM | 6700 nM | 7700 nM | > 40 µM | did not show considerable cytotoxicity | 
COc1cc(CNc2ccc(C(C)C)cc2)cc(OC)c1OC [110f, 4-Isopropyl-N-(3,4,5-trimethoxybenzyl)aniline Hydrochloride] |  |  |  |  |  |  |  | GI50 [8]: 12.9 µM; IC50 ([7]; Table X, different glutamate preparation (1M monosodium glutamate and GTP), read-out: inhibn of tubulin polymn IC50 (±SD)): > 40 µM
COc1ccc(/C=C\c2cc(OC)c(OC)c(OC)c2)cc1 [compound 5a, (Z)-1-(4-Methoxyphenyl)-2-(3,4,5-trimethoxyphenyl)ethene] |  |  |  | 0.26 nM |  | 2.5 µM |  | times more cytotoxic than combretastatin A-4 (1a) ([1]; MCF-7): about 10 times; times less cytotoxic than combretastatin A-4 (1a) ([2]; MLM): ~7 times; times more cytotoxic than combretastatin A-4 (1a) ([3]; HT-29): approximately 140 times; times less cytotoxic than combretastatin A-4 (1a) ([4]; SKMEL-5): ~30 times; IC50 ([5]; read-out: cytotoxicity ED50): < 1000 nM; times less cytotoxic than combretastatin A-4 (1a) ([6]; A-549): about 20 times; inhibition of tubulin polymerization (in words) [7]: strong inhibitors of tubulin polymerization; IC50 [7, 12]: 2.2 µM
COc1ccccc1/C=C\c1cc(OC)c(OC)c(OC)c1 [compound 5c, (Z)-1-(2-Methoxyphenyl)-2-(3,4,5-trimethoxyphenyl)ethene] | 1300 nM | 8.6 µM | 870 nM | 1200 nM | 1100 nM |  | decreased the activity drastically | inhibition of tubulin polymerization (in words) [7]: low activity
COc1cc(/C=C\c2ccc(O)cc2)cc(OC)c1OC [compound 5o, (Z)-1-(4-Hydroxyphenyl)-2-(3,4,5-trimethoxyphenyl)ethene] | 5700 nM | 12.6 µM | 1750 nM | 2270 nM | 12700 nM |  | decreased the activity drastically | 
COc1cc(/C=C/c2ccc(N(C)C)cc2)cc(OC)c1OC [compound 6n, (E)-1-[4-(N,N-Dimethylamino)phenyl]-2-(3,4,5-trimethoxyphenyl)ethene] | 82 nM | 0.0125 µM | 6.9 nM | 4.6 nM | 6.1 nM |  |  | IC50 [5, 10]: < 1000 nM; inhibition of tubulin polymerization (in words) [7]: neither trans stilbene was able to significantly inhibit tubulin polymerization; IC50 [7, 12]: > 50 µM
COc1cc(/C=C\c2ccc(C(C)C)cc2)cc(OC)c1OC [compound 15f, (Z)-[4-(2-Propyl)phenyl]-2-(3,4,5-trimethoxyphenyl)ethene] | 1.4 nM | 0.07 µM | 2.4 nM | 0.47 nM | 6.6 nM |  |  | IC50 ([5]; read-out: cytotoxicity ED50): 0.47 to 70 nM
COc1ccc(CC(C#N)c2cc(OC)c(OC)c(OC)c2)cc1 (stereo not shown) [compound 17h, 3-(4-Methoxyphenyl)-2-(3,4,5-trimethoxyphenyl)propanonitrile] | 14 nM | 1.6 µM | 7.5 nM | 4.1 nM | 9.6 nM | 11 µM |  | IC50 [5, 11]: < 1000 nM
COc1ccc(C(C#N)Cc2cc(OC)c(OC)c(OC)c2)cc1 (stereo not shown) [compound 17i, 2-(4-Methoxyphenyl)-3-(3,4,5-trimethoxyphenyl)propanonitrile] | 14300 nM | 21.1 µM | 9400 nM | 6400 nM | 11500 nM | > 40 µM |  | less cytotoxic than 8a / cytotoxicity reduced [5]: 10,000 -fold
COC(=O)C(Cc1cc(OC)c(OC)c(OC)c1)c1ccc(OC)cc1 (stereo not shown) [compound 17j, Methyl 2-(4-methoxyphenyl)-3-(3,4,5-trimethoxyphenyl)n-proponate] | > 25000 nM | > 25 µM | > 25000 nM | > 25000 nM | > 25000 nM | > 40 µM |  | IC50 ([5]; read-out: cytotoxicity ED50, five cancer cell lines): > 25000 nM
COC(=O)/C(=C/c1ccc(OC)cc1)c1cc(OC)c(OC)c(OC)c1 [compound 24a, (E)-Methyl 3-(4-methoxyphenyl)-2-(3,4,5-trimethoxyphenyl)-prop-2-enoate] | 20 nM | 9.6 µM | 9.5 nM | 6.4 nM | 11 nM | > 40 µM |  | IC50 [5, 13]: 6.4 to 50 nM
CNC(=O)/C(=C/c1ccc(OC)cc1)c1cc(OC)c(OC)c(OC)c1 [compound 24c, (E)-N-Methyl-[3-(4-methoxyphenyl)-2-(3,4,5-trimethoxyphenyl)]-prop-2-enoamide] | 50 nM | 9.3 µM | 26 nM | 24 nM | 24 nM | 35 µM |  | IC50 [5, 13]: 6.4 to 50 nM
CCNC(=O)/C(=C/c1ccc(OC)cc1)c1cc(OC)c(OC)c(OC)c1 [compound 24d, (E)-N-Ethyl-[3-(4-methoxyphenyl)-2-(3,4,5-trimethoxyphenyl)]-prop-2-enoamide] | 3700 nM | > 25 µM | 1800 nM | 7050 nM | 3400 nM | > 40 µM | did not show considerable cytotoxicity | 
COc1ccc(C(=O)c2cc(OC)c(OC)c(OC)c2)cc1 [compound 27, 3,4,4',5-Tetramethoxybenzophenone] | 15 nM | 0.013 µM | 13 nM | 12 nM | 11 nM | 7.4 µM |  | less cytotoxic than 8a / cytotoxicity reduced [5]: about 100 -fold
COc1ccc(C(O)c2cc(OC)c(OC)c(OC)c2)cc1 (stereo not shown) [compound 28, 4-Methoxyphenyl-(3,4,5-trimethoxyphenyl)methanol] | 1900 nM | 16.8 µM | 1200 nM | 1500 nM | 1500 nM | > 40 µM |  | cytotoxicity reduced relative to 27 ([5]; 28 relative to 27): 100 times
